The record followed here is article PMC8835499, “Challenging Approach to the Development of Novel Estrogen Receptor Modulators Based on the Chemical Properties of Guaiazulene” (International Journal of Molecular Sciences, 2022).

The structures appear in SMILES notation.

The experiment concerns the target T1, estrogen receptor α (ERα) (Homo sapiens, UniProt P03372).
T1 construct: gene ESR1; ERα LBD (human recombinant ERα)
T1 sequence (P03372 311-547 limits assumed): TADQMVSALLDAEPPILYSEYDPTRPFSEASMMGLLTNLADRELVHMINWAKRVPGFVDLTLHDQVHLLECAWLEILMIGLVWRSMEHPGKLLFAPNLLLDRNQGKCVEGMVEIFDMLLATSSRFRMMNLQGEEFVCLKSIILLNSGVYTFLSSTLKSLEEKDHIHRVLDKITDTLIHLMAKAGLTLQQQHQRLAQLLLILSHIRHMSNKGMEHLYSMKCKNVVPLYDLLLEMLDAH
Briefly: competitive radioligand binding assay with [3H][…]β-estradiol (nitrocellulose filtration).

A word on the IC50: it is the concentration that gives 50% inhibition. Low values mean higher potency, high ones lower potency. `Cc1cc(C=C(c2ccc(O)cc2)c2ccc(O)cc2)c2c(C)ccc(C(C)C)cc1-2` [Az-01, 4,4′-(2-(5-Isopropyl-3,8-dimethylazulen-1-yl)ethene-1,1-diyl)diphenol] came in with an IC50 of 1.22 nM.
